Laboratory results published in US8222202B2 (priority 2006, dated 2012).
pEC50: −log10 of the molar value. Where two headings read alike, the source gives them in different places. Starred links: 1 amine or outer side, 2 acyl side, 3 side chain; linkers in the order of their positions; H or OH if unused. Positions of bridges follow the written chain, without caps; N, C: chain ends. Non-standard residues stand in square brackets, D forms with d. Residues, ends and D or L forms follow the SMILES beside them. *: point of attachment. Orn(Me) = CN(CCC[C@H](N[*:1])C(=O)[*:2])[*:3]; X2 = CONC(=O)CC[C@H](N[*:1])C(=O)[*:2]; Orn(iPr) = CC(C)NCCC[C@H](N)C(=O)O; X1 = CCNCCC[C@H](N[*:1])C(=O)[*:2]; Orn(Pr) = CCCNCCC[C@H](N)C(=O)O; 2Thi = N[C@@H](Cc1cccs1)C(=O)O; 3Thi = N[C@@H](Cc1ccsc1)C(=O)O; Aad = N[C@@H](CCCC(=O)O)C(=O)O; NH(3-hydroxypropyl) = OCCCN*; Orn = NCCC[C@H](N)C(=O)O; Dab = NCC[C@H](N)C(=O)O

Assays:
[1] = molecular target: T1, human oxytocin (hOT) receptor (Homo sapiens, UniProt P30559); experiment: luciferase-based transcriptional reporter assay, selectivity hOT versus hV1a; assay type: cell-based
T1 construct: expressed in transfected cells
T1 sequence (P30559 1-389): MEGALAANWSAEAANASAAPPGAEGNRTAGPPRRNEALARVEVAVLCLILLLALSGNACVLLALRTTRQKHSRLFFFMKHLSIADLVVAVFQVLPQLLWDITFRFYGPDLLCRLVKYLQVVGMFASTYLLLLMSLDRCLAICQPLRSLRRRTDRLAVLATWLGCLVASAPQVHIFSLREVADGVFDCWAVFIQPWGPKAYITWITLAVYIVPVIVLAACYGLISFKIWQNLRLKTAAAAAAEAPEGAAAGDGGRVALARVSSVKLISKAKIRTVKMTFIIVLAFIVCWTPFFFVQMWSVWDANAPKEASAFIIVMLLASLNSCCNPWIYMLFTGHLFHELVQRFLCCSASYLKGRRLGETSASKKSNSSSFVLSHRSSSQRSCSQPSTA
Protocol: (§1) Agonist activity of compounds on the hV1a receptor was determined in a transcriptional reporter assay by transiently transfecting a hV1a receptor expression DNA into HEK-293 cells in concert with a reporter DNA containing intracellular calcium responsive promoter elements regulating expression of firefly luciferase. See Boss, V., Talpade, D. J., Murphy, T. J. J. Biol. Chem. 1996, May 3; 271(18), 10429-10432 for further guidance on this assay. […] To determine selectivity, compounds were tested in luciferase-based transcriptional reporter assays expressing the human oxytocin (hOT) receptor. Assays for other receptors (hV2, hV1b, rat V1a and rat V2) were also conducted.
(§2) The EC50 value given is the geometric mean expressed in nanomol/L (nM). Selectivity values are given as EC50 ratios.

hV1a receptor = molecular target: T2, hV1a receptor (Homo sapiens, UniProt P37288); experiment: hV1a receptor transcriptional reporter (luciferase) agonist assay; assay type: cell-based
T2 construct: expressed in transfected cells; host or cells: HEK-293
Protocol: as §1, §2

[2] = test system: anaesthetised Sprague-Dawley male rats; experiment: in vivo duration of action, blood pressure test in anaesthetised rats; parameters: species or system rat; settings: ratio of decay rate of diastolic blood pressure response, AVP 0.1 nmol/kg i.v. to equieffective dose of compound; dibenamine-pretreated rats
Protocol: Blood pressure tests were carried out on anaesthetised Sprague-Dawley male rats (weighing 270-300 g) with catheterised jugular vein and carotid artery. The catheterised carotid artery was used to continuously monitor blood pressure and the jugular vein was used for administration of the compounds tested. Rats received intravenous injections of dibenamine prior to dosing to enhance their responsiveness to V1a receptor agonists (cf. Dekanski, J., Br. J. Pharmacol. 1952, 7, 567-572). […] Dosing intervals were set as time for the blood pressure to decrease to a stable baseline.
Determination of duration of action was based on the decay rate of diastolic arterial blood pressure transient increase. Specifically, for an exponential decay of plasma concentration, it can be shown that, if the response is measured beyond the distribution phase, the rate of decay near the EC50 is linear and inversely proportional to the elimination half-life (Rowland, M. and Tozer, T. in “Clinical Pharmacokinetics, Concepts and Applications”, 3rd ed., Lippincott Williams & Wilkins, Philadelphia, 1995).

[3] = class symbol, agonist efficacy at hOT receptor compared to AVP
[4] = HEK-293 cells transiently transfected with hV1a receptor, 5 hours exposure, geometric mean, read-out: EC50 hV1a receptor

T2 sequence (P37288 whole entry): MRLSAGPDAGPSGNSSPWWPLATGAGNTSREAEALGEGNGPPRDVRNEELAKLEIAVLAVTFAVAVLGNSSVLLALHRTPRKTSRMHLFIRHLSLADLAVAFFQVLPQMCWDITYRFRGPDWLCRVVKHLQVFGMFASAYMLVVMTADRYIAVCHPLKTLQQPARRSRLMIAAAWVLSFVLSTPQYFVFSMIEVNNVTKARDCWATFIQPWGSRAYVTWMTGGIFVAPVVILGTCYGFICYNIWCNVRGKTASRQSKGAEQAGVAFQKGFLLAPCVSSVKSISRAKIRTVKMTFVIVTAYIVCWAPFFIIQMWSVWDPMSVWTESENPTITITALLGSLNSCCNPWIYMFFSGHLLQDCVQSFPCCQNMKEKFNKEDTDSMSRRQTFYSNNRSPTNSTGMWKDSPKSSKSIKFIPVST

SMILES: CC[C@H](C)[C@@H]1NC(=O)[C@H](Cc2ccccc2)NC(=O)[C@@H](N)CSSC[C@@H](C(=O)N2CCC[C@H]2C(=O)N[C@@H](CCCN)C(=O)NCC(N)=O)NC(=O)[C@H](CC(N)=O)NC(=O)[C@H](CC(N)=O)NC1=O [Compound 30] (H-CFINNCP[Orn]G-NH2; disulfide 1-6; N-terminus and C-terminus assumed)
- selectivity hOT/hV1a [1, 3]: + (selective hV1a receptor agonist; EC50 hOT/hV1a ratio not determined due to very low agonist efficacy (<30% compared to AVP) at the hOT receptor)
- pEC50 (hV1a receptor; [4]): 8.84
- in vivo duration relative to AVP [2]: 1.7

SMILES: CC[C@H](C)[C@@H]1NC(=O)[C@H](Cc2ccccc2)NC(=O)[C@@H](N)CSSC[C@@H](C(=O)N2CCC[C@H]2C(=O)N[C@@H](CCCN)C(=O)NCC(N)=O)NC(=O)[C@H](CC(N)=O)NC(=O)[C@H](CCC(=O)NOC)NC1=O [Compound 10] (H-CFI[X2]NCP[Orn]G-NH2; disulfide 1-6; N-terminus and C-terminus assumed)
- selectivity hOT/hV1a ([1]; EC50 ratio): 11
- pEC50 (hV1a receptor; [4]): 8.94
- in vivo duration relative to AVP [2]: 2.3

SMILES: CC[C@H](C)[C@@H]1NC(=O)[C@H](Cc2cccs2)NC(=O)[C@@H](N)CSSC[C@@H](C(=O)N2CCC[C@H]2C(=O)N[C@@H](CCCNC(C)C)C(=O)NCC(N)=O)NC(=O)[C@H](CC(N)=O)NC(=O)[C@H](CCC(N)=O)NC1=O [Compound 34] (H-C[2Thi]IQNCP[Orn(iPr)]G-NH2; disulfide 1-6)
- selectivity hOT/hV1a [1]: 72
- pEC50 (hV1a receptor): 9.14
- in vivo duration relative to AVP [2]: 2.0

SMILES: CC[C@H](C)[C@@H]1NC(=O)[C@H](Cc2ccccc2)NC(=O)[C@@H](N)CSSC[C@@H](C(=O)N2CCC[C@H]2C(=O)N[C@@H](CCN)C(=O)NCC(N)=O)NC(=O)[C@H](CC(N)=O)NC(=O)[C@H](CC(N)=O)NC1=O [Compound 3] (H-CFINNCP[Dab]G-NH2; disulfide 1-6)
- selectivity hOT/hV1a [1]: + (key: +: selective hV1a receptor agonist; EC50 hOT/hV1a ratio not determined due to very low agonist efficacy (<30% compared to AVP) at the hOT receptor)
- pEC50 (hV1a receptor): 8.83
- in vivo duration relative to AVP [2]: 1.7

SMILES: CC[C@H](C)[C@@H]1NC(=O)[C@H](Cc2ccccc2)NC(=O)[C@@H](N)CSSC[C@@H](C(=O)N2CCC[C@H]2C(=O)N[C@@H](CCN)C(=O)NCC(N)=O)NC(=O)[C@H](CC(N)=O)NC(=O)[C@H](CCCC(N)=O)NC1=O [Compound 11] (H-CFI[Aad](NH2)NCP[Dab]G-NH2; disulfide 1-6)
- selectivity hOT/hV1a [1]: + (key: +: selective hV1a receptor agonist; EC50 hOT/hV1a ratio not determined due to very low agonist efficacy (<30% compared to AVP) at the hOT receptor)
- pEC50 (hV1a receptor): 8.53
- in vivo duration relative to AVP [2]: 1.9

SMILES: CC[C@H](C)[C@@H]1NC(=O)[C@H](Cc2ccccc2)NC(=O)[C@@H](N)CSSC[C@@H](C(=O)N2CCC[C@H]2C(=O)N[C@@H](CCCN)C(=O)NCC(N)=O)NC(=O)[C@H](CC(N)=O)NC(=O)[C@H](CCCC(N)=O)NC1=O [Compound 9] (H-CFI[Aad](NH2)NCP[Orn]G-NH2; disulfide 1-6)
- selectivity hOT/hV1a [1]: + (key: +: selective hV1a receptor agonist; EC50 hOT/hV1a ratio not determined due to very low agonist efficacy (<30% compared to AVP) at the hOT receptor)
- pEC50 (hV1a receptor): 9.17
- in vivo duration relative to AVP [2]: 1.5

SMILES: CCCNCCC[C@H](NC(=O)[C@@H]1CCCN1C(=O)[C@@H]1CSSC[C@H](N)C(=O)N[C@@H](Cc2ccccc2)C(=O)N[C@@H]([C@@H](C)CC)C(=O)N[C@@H](CC(N)=O)C(=O)N[C@@H](CC(N)=O)C(=O)N1)C(=O)NCC(N)=O [Compound 50] (H-CFINNCP[Orn(Pr)]G-NH2; disulfide 1-6; N-terminus and C-terminus assumed)
- selectivity hOT/hV1a ([1]; EC50 ratio): 43
- pEC50 (hV1a receptor; [4]): 8.82
- in vivo duration relative to AVP [2]: 2.4

SMILES: CCNCCC[C@H](NC(=O)[C@@H]1CCCN1C(=O)[C@@H]1CSSC[C@H](N)C(=O)N[C@@H](Cc2ccccc2)C(=O)N[C@@H]([C@@H](C)CC)C(=O)N[C@@H](CC(N)=O)C(=O)N[C@@H](CC(N)=O)C(=O)N1)C(=O)NCC(N)=O [Compound 47] (H-CFINNCP[X1]G-NH2; disulfide 1-6; N-terminus and C-terminus assumed)
- selectivity hOT/hV1a [1, 3]: + (selective hV1a receptor agonist; EC50 hOT/hV1a ratio not determined due to very low agonist efficacy (<30% compared to AVP) at the hOT receptor)
- pEC50 (hV1a receptor; [4]): 9.00
- in vivo duration relative to AVP [2]: 1.6

SMILES: CC[C@H](C)[C@@H]1NC(=O)[C@H](Cc2ccccc2)NC(=O)[C@@H](N)CSSC[C@@H](C(=O)N2CCC[C@H]2C(=O)N[C@@H](CCCNC(C)C)C(=O)NCC(N)=O)NC(=O)[C@H](CC(N)=O)NC(=O)[C@H](CC(N)=O)NC1=O [Compound 41] (H-CFINNCP[Orn(iPr)]G-NH2; disulfide 1-6)
- selectivity hOT/hV1a [1]: 53
- pEC50 (hV1a receptor): 9.01
- in vivo duration relative to AVP [2]: 2.6

SMILES: CC[C@H](C)[C@@H]1NC(=O)[C@H](Cc2ccccc2)NC(=O)[C@@H](N)CSSC[C@@H](C(=O)N2CCC[C@H]2C(=O)N[C@@H](CCCNC(C)C)C(=O)NCC(N)=O)NC(=O)[C@H](CC(N)=O)NC(=O)[C@H](CCC(N)=O)NC1=O [Compound 5] (H-CFIQNCP[Orn(iPr)]G-NH2; disulfide 1-6; N-terminus and C-terminus assumed)
- selectivity hOT/hV1a ([1]; EC50 ratio): 117
- pEC50 (hV1a receptor): 9.60
- in vivo duration relative to AVP [2]: 1.9

SMILES: CC[C@H](C)[C@@H]1NC(=O)[C@H](Cc2ccccc2)NC(=O)[C@@H](N)CSSC[C@@H](C(=O)N2CCC[C@H]2C(=O)N[C@@H](CCCNC)C(=O)NCC(N)=O)NC(=O)[C@H](CC(N)=O)NC(=O)[C@H](CC(N)=O)NC1=O [Compound 46] (H-CFINNCP[Orn(Me)]G-NH2; disulfide 1-6; N-terminus and C-terminus assumed)
- selectivity hOT/hV1a [1, 3]: + (selective hV1a receptor agonist; EC50 hOT/hV1a ratio not determined due to very low agonist efficacy (<30% compared to AVP) at the hOT receptor)
- pEC50 (hV1a receptor; [4]): 8.62
- in vivo duration relative to AVP [2]: 2.1

SMILES: CC[C@H](C)[C@@H]1NC(=O)[C@H](Cc2ccsc2)NC(=O)[C@@H](N)CSSC[C@@H](C(=O)N2CCC[C@H]2C(=O)N[C@@H](CCN)C(=O)NCC(N)=O)NC(=O)[C@H](CC(N)=O)NC(=O)[C@H](CCC(N)=O)NC1=O [Compound 15] (H-C[3Thi]IQNCP[Dab]G-NH2; disulfide 1-6)
- selectivity hOT/hV1a ([1]; EC50 ratio): 43
- pEC50 (hV1a receptor; [4]): 9.21
- in vivo duration relative to AVP [2]: 2.2

SMILES: CC[C@H](C)[C@@H]1NC(=O)[C@H](Cc2ccccc2)NC(=O)[C@@H](N)CSSC[C@@H](C(=O)N2CCC[C@H]2C(=O)N[C@@H](CCCN)C(=O)NCC(N)=O)NC(=O)[C@H](CC(N)=O)NC(=O)[C@H](CCC(=O)NC)NC1=O [Compound 19] (H-CFIE(NHMe)NCP[Orn]G-NH2; disulfide 1-6)
- selectivity hOT/hV1a [1, 3]: + (selective hV1a receptor agonist; EC50 hOT/hV1a ratio not determined due to very low agonist efficacy (<30% compared to AVP) at the hOT receptor)
- pEC50 (hV1a receptor; [4]): 8.22
- in vivo duration relative to AVP [2]: 1.6

SMILES: CCNCCC[C@H](NC(=O)[C@@H]1CCCN1C(=O)[C@@H]1CSSC[C@H](N)C(=O)N[C@@H](Cc2ccccc2)C(=O)N[C@@H]([C@@H](C)CC)C(=O)N[C@@H](CCC(N)=O)C(=O)N[C@@H](CC(N)=O)C(=O)N1)C(=O)NCC(N)=O [Compound 6] (H-CFIQNCP[X1]G-NH2; disulfide 1-6; N-terminus and C-terminus assumed)
- selectivity hOT/hV1a ([1]; EC50 ratio): 86
- pEC50 (hV1a receptor): 9.54
- in vivo duration relative to AVP [2]: 1.9

SMILES: CC[C@H](C)[C@@H]1NC(=O)[C@H](Cc2ccccc2)NC(=O)[C@@H](N)CSSC[C@@H](C(=O)N2CCC[C@H]2C(=O)N[C@@H](CCCN)C(=O)NCC(N)=O)NC(=O)[C@H](CC(N)=O)NC(=O)[C@H](CC(=O)NCCCO)NC1=O [Compound 2] (H-CFID(NH(3-hydroxypropyl))NCP[Orn]G-NH2; disulfide 1-6)
- selectivity hOT/hV1a [1]: + (key: +: selective hV1a receptor agonist; EC50 hOT/hV1a ratio not determined due to very low agonist efficacy (<30% compared to AVP) at the hOT receptor)
- pEC50 (hV1a receptor): 8.93
- in vivo duration relative to AVP [2]: 1.7

SMILES: CCNC(=O)C[C@@H]1NC(=O)[C@H]([C@@H](C)CC)NC(=O)[C@H](Cc2ccccc2)NC(=O)[C@@H](N)CSSC[C@@H](C(=O)N2CCC[C@H]2C(=O)N[C@@H](CCN)C(=O)NCC(N)=O)NC(=O)[C@H](CC(N)=O)NC1=O [Compound 4, [Phe^2,Asn(Et)^4, Dbu^8]VT] (H-CFID(NHEt)NCP[Dab]G-NH2; disulfide 1-6; N-terminus and C-terminus assumed)
- selectivity hOT/hV1a [1, 3]: + (selective hV1a receptor agonist; EC50 hOT/hV1a ratio not determined due to very low agonist efficacy (<30% compared to AVP) at the hOT receptor)
- in vivo duration relative to AVP [2]: 1.8
